# From US8202908B1, “D-aspartic acid supplement” (priority 2008, dated 2012)
# How the values were obtained:
# [1] = system: adult male humans; assay: Oral DL-aspartic acid given to adult male humans for 21 days, blood hormone levels; assay type: in vivo, human; settings: adult males aged twenty to sixty; 10, 20 or 40 grams DL-aspartic acid per day orally in two doses for twenty-one days; versus baseline
# Description: This example illustrates the effects of administering D-aspartic acid to adult male humans.
# A group of nine adult males ranging in age from twenty to sixty is divided into three groups of three men each. The division is made so that each group contains a similar age distribution. Blood samples are taken and the levels of testosterone, growth hormone, and insulin-like growth factor 1 are measured.
# The men in the first group orally ingest 10 grams of DL-aspartic acid (which includes 5 grams of D-aspartic acid) daily for twenty-one days. The amount is divided into two equal doses, one of which is taken in the morning and one of which is taken in the evening. The men in the second and third groups follow a similar procedure except the men in the second group orally ingest 20 grams of DL-aspartic acid (which includes 10 grams of D-aspartic acid) per day and the men in the third group orally ingest 40 grams of DL-aspartic acid (which includes 20 grams of D-aspartic acid) per day. Blood samples are then retaken.
# [2] = system: pituitary gland; settings: both in-vitro and in-vivo; cited from earlier work
# [3] = system: pituitary; settings: both in-vitro and in-vivo; cited from earlier work
# [4] = system: animals; settings: cited from earlier work
# [5] = system: testes; settings: both in-vitro and in-vivo; cited from earlier work
# [6] = system: finishing pigs; settings: finishing pigs fed with N-methyl-D-aspartate; cited from earlier work
SMILES,level of growth hormone in blood [1],level of insulin-like growth factor 1 in blood [1],level of testosterone in blood [1],growth hormone production from the pituitary gland [2],release of luteinizing hormone from the pituitary [3],growth hormone levels in the animals [4],testosterone levels in the animals [4],release of testosterone from the testes [5],growth rate [6]
NC(CC(=O)O)C(=O)O (racemic) [DL-aspartic acid],significant increases,significant increases,significant increases,,,,,,
N[C@H](CC(=O)O)C(=O)O [D-aspartic acid],,,,stimulate growth hormone production,stimulate the release,increase,increase,stimulate the release,
CN[C@H](CC(=O)O)C(=O)O [N-methyl-D-aspartate],,,,stimulate growth hormone production,,increase,increase,,increase in growth rate
